From patent US5234922A, “Use of sulfonylureas and other potassium channel regulators to treat secretory diarrhea” (University of Iowa Research Foundation, priority 1992, dated 1993)
Where a name gives a salt, the structure may show the parent alone. Read-outs that look alike come from different tables or passages of the source.

Target: T1, wild-type human CFTR (Homo sapiens, UniProt P13569)
T1 construct: expressed in transfected cells; host or cells: NIH 3T3 fibroblasts (stably infected with a retrovirus)
Test: Whole-cell patch-clamp recording of cAMP-activated CFTR Cl- currents in NIH 3T3 fibroblasts expressing recombinant CFTR
Format: cell-based
Details: for inhibition at 1000 µM: 1 mM; for effect on baseline currents: before cAMP stimulation, n=3; for effect on Cl- current previously activated by cAMP agonists: added to the bathing solution after activation; for relative potency of inhibition of CFTR Cl- currents: rank order among K+ channel openers

[1] = NIH3T3, 3 min after adding, currents activated by cAMP agonists
[2] = NIH3T3, 250 μM, 3 min after adding, currents activated by cAMP agonists

T1 sequence (P13569 whole entry): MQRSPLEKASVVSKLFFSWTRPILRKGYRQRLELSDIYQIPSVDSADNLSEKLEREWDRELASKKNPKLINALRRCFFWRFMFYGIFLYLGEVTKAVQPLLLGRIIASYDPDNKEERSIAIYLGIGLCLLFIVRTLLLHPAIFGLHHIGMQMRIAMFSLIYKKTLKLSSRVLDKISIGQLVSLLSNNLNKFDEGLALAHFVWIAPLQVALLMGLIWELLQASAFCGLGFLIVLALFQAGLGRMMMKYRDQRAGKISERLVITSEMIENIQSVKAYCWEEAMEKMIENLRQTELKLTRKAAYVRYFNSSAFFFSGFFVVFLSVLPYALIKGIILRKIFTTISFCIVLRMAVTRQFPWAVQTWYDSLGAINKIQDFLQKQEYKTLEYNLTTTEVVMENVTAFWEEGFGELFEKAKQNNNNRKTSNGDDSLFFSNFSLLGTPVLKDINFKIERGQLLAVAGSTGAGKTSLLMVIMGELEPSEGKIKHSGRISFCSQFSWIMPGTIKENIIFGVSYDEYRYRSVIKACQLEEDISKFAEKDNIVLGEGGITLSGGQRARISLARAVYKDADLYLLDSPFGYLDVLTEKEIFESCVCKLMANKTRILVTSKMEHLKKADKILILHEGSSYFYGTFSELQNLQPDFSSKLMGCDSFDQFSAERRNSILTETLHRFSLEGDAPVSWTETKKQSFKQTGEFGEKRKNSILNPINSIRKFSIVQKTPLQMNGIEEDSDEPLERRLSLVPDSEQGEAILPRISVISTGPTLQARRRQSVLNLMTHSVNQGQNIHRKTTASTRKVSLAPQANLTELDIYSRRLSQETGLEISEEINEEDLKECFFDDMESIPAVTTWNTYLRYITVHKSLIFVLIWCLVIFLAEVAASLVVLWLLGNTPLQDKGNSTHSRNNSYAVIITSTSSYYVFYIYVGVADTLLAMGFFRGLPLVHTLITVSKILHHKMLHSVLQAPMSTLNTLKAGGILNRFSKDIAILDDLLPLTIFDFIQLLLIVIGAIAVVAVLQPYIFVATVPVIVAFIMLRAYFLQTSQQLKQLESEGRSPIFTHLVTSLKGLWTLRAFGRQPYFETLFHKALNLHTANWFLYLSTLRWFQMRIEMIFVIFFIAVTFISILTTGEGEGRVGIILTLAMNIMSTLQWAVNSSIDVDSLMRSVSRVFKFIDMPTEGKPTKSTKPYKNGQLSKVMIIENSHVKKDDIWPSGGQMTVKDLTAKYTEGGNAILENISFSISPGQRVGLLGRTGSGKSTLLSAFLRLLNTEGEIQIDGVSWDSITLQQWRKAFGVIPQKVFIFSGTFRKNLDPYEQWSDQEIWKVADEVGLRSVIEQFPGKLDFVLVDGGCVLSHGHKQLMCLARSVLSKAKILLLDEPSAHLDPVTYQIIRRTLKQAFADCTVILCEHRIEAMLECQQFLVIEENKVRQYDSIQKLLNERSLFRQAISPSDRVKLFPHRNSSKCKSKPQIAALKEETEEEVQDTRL

SMILES | effect on Cl- current previously activated by cAMP agonists | relative potency of inhibition of CFTR Cl- currents | inhibition at 250 µM [2] [%] | inhibition at 1000 µM [1] [%] | further results
CCCCNC(=O)NS(=O)(=O)c1ccc(C)cc1 [tolbutamide] |  |  |  | > 90 | voltage dependence of inhibition of CFTR Cl- currents (500 μM): little voltage dependence; effect on CFTR Cl- currents (500 μM, currents activated by cAMP agonists): inhibited; reversibility of inhibition of CFTR Cl- currents on washing (washes lasting >10 min): partially recovered
COc1ccc(Cl)cc1C(=O)NCCc1ccc(S(=O)(=O)NC(=O)NC2CCCCC2)cc1 [glibenclamide] |  |  |  |  | inhibition at 100 µM (NIH3T3, read-out: inhibition of CFTR Cl- currents): > 90%; reversibility of inhibition of CFTR Cl- currents on washing (prolonged washing): irreversible

Now from value to compound, other results behind:

effect on Cl- current previously activated by cAMP agonists | relative potency of inhibition of CFTR Cl- currents | inhibition at 250 µM [2] [%] | SMILES | inhibition at 1000 µM [1] [%] | further results
inhibited | more potent than lemakalim |  | Nc1cc(N2CCCCC2)nc(N)[n+]1OS(=O)(=O)[O-] [minoxidil sulfate] |  | effect on baseline currents (10-500 μM): no effect; inhibition at 100 µM (NIH3T3, 100 μM, 3 min after adding, currents activated by cAMP agonists, read-out: inhibition of CFTR Cl- currents): > 70%
inhibited |  | > 70 | CC1=NS(=O)(=O)c2cc(Cl)ccc2N1 [diazoxide] | > 70 | effect on baseline currents (100-1,000 μM): no effect
inhibited | more potent than diazoxide | > 70 | CC1(C)Oc2ccc(C#N)cc2[C@@H](N2CCCC2=O)[C@@H]1O [lemakalim] |  | effect on baseline currents (250 μM): no effect
